The record followed here is patent US11789012B2, “Cell death biomarker” (UCL Business PLC, priority 2016, dated 2023).

For one experiment, the system named is MPM cell lines. The experiment in a line: Combination drug screen with rTRAIL as anchor drug. The conditions noted are these: otherwise resistant cells; delta AUC synergy metric. In kind it is cell-based, Human. How it is done: FIG. 7A is a volcano plot showing drug-genome interactions when rTRAIL was used as an anchor drug in combination with the library of 94 single agent compounds. Synergy was described using delta AUC metric. FIGS. 7B & 7C are graphs showing the effect of rTRAIL on cell viability of MPM cells in the presence of LCL161. TRAIL resistant MPM cells were treated with either 0-1000 ng/ml of TRAIL alone or a combination of 5 μM LCL161 and 0-1000 ng/ml of TRAIL for 24 hours and cell death was quantified by Annexin V/DAPI assay. FIG. 7D is a graph showing the effect of rTRAIL on cell viability of cells in the presence of the IAP inhibitor, LCL161. BAP1-transduced or BAP1 C91A-transduced H226 cells were treated either with 0-1000 ng/ml of TRAIL alone or combination of 5 μM LCL161 and 0-1000 ng/ml of TRAIL for 24 hours and cell death was quantified by Annexin V/DAPI assay.
Manual “single dose” combination screening was undertaken using 96 well formats. Cells were plated on day 1 in previously optimized seeding densities in 180 μl if media. On day 2 20 μl of a 10× concentration of […] was added. Cells were then allowed to grow for 72 hrs or 6 days and fixed at the end of the assay. Drug wells were compared to DMSO treated control wells.
Single agent high throughput 5 point viability screening was undertaken in 384 well formats using robotic liquid handling with fixing with 4% paraformaldehyde and staining for viability with Syto60 nucleic acid dye (Invitrogen) (see below).
A binary event matrix was compiled for the cell lines in the mesothelioma screen by aggregating copy number and exome data and this was used as input classifiers for genomic correlation. Data from this therapeutic screen was then analysed using a Multivariate Analysis of Variance (MANOVA) to annotate the sensitizing effect of genotype on dose response.

A further experiment has as its system NCI-H226. The experiment in a line: Annexin V/DAPI cell death assay, H226 parental and BAP1-transduced lines. In kind it is cell-based, Human. The conditions noted are these: 100 ng/ml, 24 hours; untransduced, BAP1-expressing and catalytically dead BAP1-expressing H226. How it is done:
FIG. 5A is an immunoblot for BAP1 protein in BAP1 null mesothelioma lines following transfection with empty vector and BAP1 expression vector. […] FIG. 5C is a graph showing the effect of rTRAIL on cell viability of an untransduced H226 cell line, a BAP1 (transduced) cell line, and a H226 cell line with the NLS deleted.
Untransduced BAP1-negative H226 cells, BAP1-expressing and catalytically dead BAP1-expressing H226 cells were treated with 100 ng/ml of FASL, TRAIL and TNF-alpha for 24 hours and cell death was quantified by Annexin V/DAPI assay. *p<0.05 indicating significant difference between untransduced H226 cells H226 BAP1 expressing cells. NS no significant difference between untransduced H226 cells and BAP1 C91A transduced cells. #p<0.05 indicating significant difference between untransduced H226 cells and BAP1 C91A transduced cells.
Adherent mesothelioma cell lines were plated in a 96 well plate at approximately 10000 cells per well. Cells were plated and given 1 day to adhere at which time drug was added. After 48 hrs media, including floating cells, was collected from each well. The remaining adherent cells were washed with PBS and mobilised with 0.05% trypsin in EDTA. All cells were collected into tubes containing the previously removed media and pelleted by centrifugation (300 g, 5 minutes). Cells were then re-suspended in 1× Annexin V binding buffer with 10 μl/1 ml concentration of Annexin V-647 antibody (Invitrogen) and incubated for 15 minutes at room temperature. DAPI ([…]) was then added to each sample before flow cytometry analysis as below. Annexin V−/DAPI− cells were judged to be viable, AnnexinV+/DAPI− cells were considered to be undergoing apoptosis (early apoptotic phase), and Annexin V+/DAPI+ cells were considered late apoptotic or necrotic, and recorded as dead.

Take `CN[C@@H](C)C(=O)N[C@H](C(=O)N1CCC[C@H]1c1nc(C(=O)c2ccc(F)cc2)cs1)C1CCCCC1` [LCL161]: the “effect on DRL-induced apoptosis in combination with rTRAIL” value (from here on “effect on DRL-induced apoptosis”) in the experiment with MPM cell lines was “increase the efficacy of DRL-induced apoptosis”.

Take `COc1ccc(C(=O)CC2(O)C(=O)Nc3c(Cl)ccc(Cl)c32)cc1` (centres unmarked) [YK-4279]: the “effect on DRL-induced apoptosis” value with MPM cell lines was “increase the efficacy of DRL-induced apoptosis”.

For the molecule `CNC(=O)c1cc(Oc2ccc(NC(=O)Nc3ccc(Cl)c(C(F)(F)F)c3)cc2)ccn1` [sorafenib], the “effect on DRL-induced apoptosis” value in the experiment on MPM cell lines is recorded as “increase the efficacy of DRL-induced apoptosis”. Consider TNFα, for which, in the experiment with NCI-H226, the “sensitivity of H226 cells to cell death-inducing ligand, dependence on BAP1 catalytic domain” value is on record as “regulates the sensitivity”.

B1: FASL: cell death-inducing ligand, death receptor ligand (protein, UniProt P48023 130-281, looked up)
Tumor necrosis factor ligand …: QIGHPSPPPEKKELRKVAHLTGKSNSRSMPLEWEDTYGIVLLSGVKYKKGGLVINETGLYFVYSKVYFRGQSCNNLPLSHKVYMRNSKYPQDLVMMEGKMMSYCTTGQMWARSSYLGAVFNLTSADHLYVNVSELSLVNFEESQTFFGLYKL
Turning to B1, in the experiment with NCI-H226, the “sensitivity of H226 cells to cell death-inducing ligand, dependence on BAP1 catalytic domain” value is “regulates the sensitivity”.
